Results taken from ChEMBL document CHEMBL1132330 (J Med Chem, 1999).
pIC50, pKi: −log10 of the molar value.

Tests used:
Substance-K receptor [1] = target: T1, Substance-K receptor (Homo sapiens, UniProt P21452); test: Inhibitory activity against human Tachykinin receptor 2
T1 sequence (P21452 whole entry): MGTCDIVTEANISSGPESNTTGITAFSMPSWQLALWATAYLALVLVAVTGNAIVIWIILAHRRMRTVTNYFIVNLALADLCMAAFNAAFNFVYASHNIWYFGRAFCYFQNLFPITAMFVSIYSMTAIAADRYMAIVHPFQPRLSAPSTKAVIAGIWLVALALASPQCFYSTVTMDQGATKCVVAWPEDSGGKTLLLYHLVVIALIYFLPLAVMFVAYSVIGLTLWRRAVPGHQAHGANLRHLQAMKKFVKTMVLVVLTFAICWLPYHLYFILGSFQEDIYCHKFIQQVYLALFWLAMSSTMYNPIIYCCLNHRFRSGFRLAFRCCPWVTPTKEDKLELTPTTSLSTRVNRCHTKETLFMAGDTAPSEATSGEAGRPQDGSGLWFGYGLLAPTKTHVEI

Substance-K receptor [2] = target: T1, Substance-K receptor; test: The compound was tested for competition binding with [3H]NKA against the CHO cells from cloned human Tachykinin receptor 2; format: cell-based
[3] = test system: Substance-K receptor (Mesocricetus auratus); test: Efficacy towards hamster Tachykinin receptor 2 was determined

Row | pIC50 (Substance-K receptor [1]) | pKi (Substance-K receptor [2]) | Efficacy [3] | Structure (SMILES)
1 | 6.99 | 7.37 | – | CSCC[C@H](NC(=O)[C@H](CC(C)C)NC(=O)CNC(=O)[C@@H](NC(=O)[C@H](Cc1ccccc1)NC(=O)[C@H](Cc1ccccc1)NC(=O)[C@H](CC(=O)O)NC(=O)[C@H](Cc1c[nH]cn1)NC(=O)[C@H](CCSC)NC(=O)[C@@H](N)CC(=O)O)C(C)C)C(N)=O [NEUROKININ B]
2 | – | – | 114 | CC(C)CC[C@H](NC(=O)[C@H](CC(C)C)NC(=O)CNC(=O)[C@@H](NC(=O)[C@H](Cc1ccc(F)cc1)NC(=O)[C@@H](NC(=O)[C@@H](N)CC(=O)O)[C@@H](C)O)C(C)C)C(N)=O
3 | – | – | 116 | CC(C)CC[C@H](NC(=O)[C@H](CC(C)C)NC(=O)CNC(=O)[C@@H](NC(=O)[C@H](Cc1ccccc1)NC(=O)[C@@H](NC(=O)[C@@H](N)CC(=O)O)[C@@H](C)O)C(C)C)C(N)=O
4 | – | – | 97.8 | CC(C)CC[C@H](NC(=O)[C@H](CC(C)C)NC(=O)CNC(=O)[C@@H](NC(=O)[C@H](Cc1ccc(Cl)cc1)NC(=O)[C@@H](NC(=O)[C@@H](N)CC(=O)O)[C@@H](C)O)C(C)C)C(N)=O
